According to patent publication US5955100A, “Prodrugs their preparation and use as pharmaceuticals” (priority 1992, dated 1999):

What was measured:
[1] = butyric acid liberated from prodrugs in vivo; cited from earlier work
mouse mammary carcinoma = conditions: ten i.v. administrations and glucose acidification; treatment started 24 h after implantation; cited from earlier work
adjuvant arthritis = assay: Adjuvant arthritis in the rat; assay type: in vivo
From the text: b) Adjuvant arthritis in the rat

EAE = EAE model; assay type: in vivo
From the text: Schorlemmer et al., Drugs Exptl. Clin. Res. XVII (10/11) 461-469 (1991)

[2] = system: Salmonella typhimurium antigen (STA) induced foot swelling; assay: Delayed Type Hypersensitivity (DTH), 24 h foot swelling; assay type: in vivo, mouse
From the text: c) DTH model in the mouse
The effect of 14-O-[4-(beta-D-glucuronyloxy)-3nitrobenzylaminocarbonyl]doxorubicin (prodrug) on inflammation was investigated in a model of delayed type cutaneous reaction (Delayed Type Hypersensitivity, DTH) corresponding to the method described by Collins and Mackaness (J. Immunol. 101: 830-845,1968).
In this model, mice were immunized with a defined amount of killed Salmonella typhimurium bacteria (109) twice at an interval of one week. Three. weeks after the first immunization a DTH reaction was provoked by intraplantar injection of a Salmonella typhimurium antigen (STA). A local inflammatory infiltrate which was composed of granulocytes, macrophages, lymphocytes and accumulated interstitial fluid developed. The extent of the reaction was measured by the increase in foot swelling 24 hours after provocation of the reaction. The effect of the prodrug on the inflammatory reaction was tested with two treatment schemes. One group received a single intravenous administration of 500 mg/kg prodrug 2 hours after the STA injection, and another group received three injections of, in each case, 300 mg/kg prodrug at times 2, 5 and 8 hours after the STA injection.

[3] = Baba et al., Gann 69, 1978; cited from earlier work
[4] = Acute toxicity in nude mice (LD50, survival on day 14); conditions: mouse, in vivo, iv, nude mice (CD-1, nu/nu), 5 min infusion
Protocol: To determine the acute toxicity, nude mice (CD-1, nu/nu) were infused on day 0 with various doses of the test substance dissolved in 0.5 ml of 5% glucose solution over a period of 5 minutes. Control groups receive merely 0.5 ml of 5% glucose solution. 5 mice are used per concentration of the test substance. The number of mice surviving on day 14 is determined, and the Litchfield Wilcoxon method is used to determine the LD50.

[5] = system: human colon tumors (LoVo); assay: Inhibition of growth of human colon tumors (LoVo) growing subcutaneously in the nude mouse; assay type: in vivo, human tumor in nude mouse; conditions: for T/C: 1 × i.v., d0
Protocol: The tested human tumors are routinely maintained and passaged in nude mice. The tumors are tested for human characteristics by immunohistochemistry using monoclonal antibodies at each 3rd passage. The tumor is removed under sterile conditions and cut into small pieces of about 5-10 mm^3. One piece of tumor is implanted subcutaneously into the side of each nude mouse. After about 7-14 days, the piece of tumor is adherent to the surrounding tissue, and the tumor size A is determined with the aid of a calliper rule and measurement of two opposite diameters (a, b) by the following formula: […]
After another measurement of the tumor size carried out at an interval of 3 days, the animals are randomized to the control group and to the groups to be treated (6 animals in each group). Only animals in which a progressive tumor growth was found are used for this. Starting with the day of randomization ([…]), the animals are treated with the test substances in accordance with the scheme indicated below. Twice a week the two tumor diameters are measured for each mouse, and the individual tumor areas are calculated in accordance with the abovementioried formula.
After completion of the experiment, the relative tumor sizes for each individual animal on the particular measurement day are calculated by the formula: Ar =A(day X) /A(day 0). The median for the treated group (AT) is then related to the median for the relative control tumor size (AC), and T/C%=AT /AC […] is calculated. The statistical significance of the antitumor effect is determined with the aid of the Wilcoxon U test.

[6] = Plasma half-life after i.v. injection, liposomal and free prodrug; assay type: in vivo, CD1 nu/nu mice
[7] = system: human tumor xenografts (ovarian, breast, stomach, lung and bowel carcinomas); assay: Prodrug activation/monotherapy in human tumor xenografts; assay type: in vivo, human tumor in nude mouse
From the text: It was possible to show by means of a histochemical test (Murray et al., the journal of histochemistry and cytochemistry 37, 643-652, 1989) for determining. functional human β-glucuronidase that functionally active human .rho.-glucuronidase is present within the necrosis; i.e. cells whose cytoplasmic membrane has already been damaged still contain functionally active β-glucuronidase in the cytoplasm. This human β-glucuronidase which is localized in the necrosis and is not protected by the cytoplasmic membrane brings about the cleavage of the hydrophilic prodrug to the drug in the LoVo tumor.

In the case of `CCCC(=O)O` [butyric acid], the “therapeutic effects compared with cisplatin” value [1] is given as “inferior to those of a standard cytostatic (cisplatin)”.
In the case of `O=C(O)[C@H]1O[C@@H](Oc2nc(=O)[nH]cc2F)[C@H](O)[C@@H](O)[C@@H]1O` [FUOG, 5-fluorouracil O-.rho.-D-glucuronide], the “effect on mouse mammary carcinoma” value (mouse mammary carcinoma) is listed as “distinct effect”.
In the case of `CC(OC(=O)OCc1ccc(O[C@@H]2O[C@H](C(=O)O)[C@@H](O)[C@H](O)[C@H]2O)c([N+](=O)[O-])c1)=C(C#N)C(=O)Nc1ccc(C(F)(F)F)cc1` [Compound 22, 4-(β-D-Glucuronyloxy)-3-nitrobenzyl 2-[1-cyano-1-(N-4-trifluoromethylphenyl)carbamoyl]propen-1-yl carbonate], the “activity by comparison with the active substance (Leflunomide)” value (adjuvant arthritis) is reported as “superior activity” and the “activity by comparison with the active substance (Leflunomide)” value (EAE) is reported as “superior activity”.
In the case of `CC(C)Cc1ccc(C(C)C(=O)O)cc1` (stereo not shown) [Ibuprofen, ibuprofen, reference compound], the “24 h foot swelling” value ([2]; 200 mg/kg, 1 × p.o. (t = 0), marked xx) is reported as 1.7 ± 2.2.
In the case of `O=c1[nH]cc(F)c(=O)[nH]1` [Compound 5-FU, 5-fluorouracil], the LD50 [3] is given as 200 mg/kg.
For `COc1cccc2c1C(=O)c1c(O)c3c(c(O)c1C2=O)C[C@@](O)(C(=O)COC(=O)NCc1ccc(O[C@@H]2O[C@H](C(=O)O)[C@@H](O)[C@H](O)[C@H]2O)c([N+](=O)[O-])c1)C[C@@H]3O[C@H]1C[C@H](N)[C@H](O)[C@H](C)O1` [Compound 8, 14-O-[4-(Beta-D-glucuronyloxy)-3-nitrobenzylaminocarbonyl]doxorubicin], the LD50 at 336 h [4] was over 1500 mg/kg, the T/C ([5]; 500 mg/kg, listed as Prodrug) was 40.0% and the T/C ([5]; 500 mg/kg, listed as prodrug) was ~ 40%. For the same compound, the “efficacy compared with fusion protein in combination with prodrug” value ([5]; LoVo, prodrug alone) was “as effective as in the group which received fusion protein in combination with prodrug”, the “statistical significance (p) of difference to doxorubicin treatment” value ([5]; tumor growth, vs doxorubicin treatment) was under 0.05 and the “24 h foot swelling” value ([2]; 300 mg/kg, 3 × i.v. (t = +2, +5, +8 h), marked xx) was 1.1 ± 1.3. The “24 h foot swelling” value ([2]; 500 mg/kg, 1 × i.v. (t = +2 h), mean ± spread, marked x) was 3.5 ± 3.9, the “effect by comparison with standard therapy” value ([2]; DTH) was “superior effect” and the “reduction in the inflammatory reaction” value ([2]; both prodrug treatment schemes) was “significant reduction in the inflammatory reaction”. The “effect compared with ibuprofen” value ([2]; three administrations of prodrug (300 mg/kg)) was “slightly superior to the standard therapy”, the half-life ([6]; mouse, plasma, iv, free prodrug, CD1 nu/nu mice (data not shown)) was about 20 min and the “increase in plasma half-life after protein preincubation” value ([6]; preincubation with 50 g/l human serum albumin or human acid alpha-1 glycoprotein) was “less distinct increase in the plasma half-life”. For the same compound, the “effect of prodrug monotherapy on tumors without significant necrosis” value ([7]; non-necrotic tumors (data not shown)) was “cannot be treated by prodrug monotherapy” and the “endogenous activation by central necrosis” value ([7]; ovarian, breast, stomach, lung and bowel carcinoma xenografts) was “confirmed in a large number of human tumor xenografts”.
With `COc1cccc2c1C(=O)c1c(O)c3c(c(O)c1C2=O)C[C@@](O)(C(=O)CO)C[C@@H]3O[C@H]1C[C@H](N)[C@H](O)[C@H](C)O1` [Doxorubicin, doxorubicin, reference compound] the T/C ([5]; 12 mg/kg) was 78.4% and the T/C ([5]; 12 mg/kg, listed as doxorubicin) was ~ 80%.
